Experimental findings from ChEMBL document CHEMBL1154257, “Prediction of telomerase inhibitory activity for acridinic derivatives based on chemical structure” (Eur J Med Chem, 2009) are described below.

Molecules are shown by their SMILES. Bounds are passed on as bounds.

The target of this assay is Telomerase reverse transcriptase (Homo sapiens, UniProt O14746). Briefly: Inhibition of telomerase in human A2780 cells by TRAP assay. In kind it is cell-based.
Chain of Telomerase reverse transcriptase (O14746 whole entry): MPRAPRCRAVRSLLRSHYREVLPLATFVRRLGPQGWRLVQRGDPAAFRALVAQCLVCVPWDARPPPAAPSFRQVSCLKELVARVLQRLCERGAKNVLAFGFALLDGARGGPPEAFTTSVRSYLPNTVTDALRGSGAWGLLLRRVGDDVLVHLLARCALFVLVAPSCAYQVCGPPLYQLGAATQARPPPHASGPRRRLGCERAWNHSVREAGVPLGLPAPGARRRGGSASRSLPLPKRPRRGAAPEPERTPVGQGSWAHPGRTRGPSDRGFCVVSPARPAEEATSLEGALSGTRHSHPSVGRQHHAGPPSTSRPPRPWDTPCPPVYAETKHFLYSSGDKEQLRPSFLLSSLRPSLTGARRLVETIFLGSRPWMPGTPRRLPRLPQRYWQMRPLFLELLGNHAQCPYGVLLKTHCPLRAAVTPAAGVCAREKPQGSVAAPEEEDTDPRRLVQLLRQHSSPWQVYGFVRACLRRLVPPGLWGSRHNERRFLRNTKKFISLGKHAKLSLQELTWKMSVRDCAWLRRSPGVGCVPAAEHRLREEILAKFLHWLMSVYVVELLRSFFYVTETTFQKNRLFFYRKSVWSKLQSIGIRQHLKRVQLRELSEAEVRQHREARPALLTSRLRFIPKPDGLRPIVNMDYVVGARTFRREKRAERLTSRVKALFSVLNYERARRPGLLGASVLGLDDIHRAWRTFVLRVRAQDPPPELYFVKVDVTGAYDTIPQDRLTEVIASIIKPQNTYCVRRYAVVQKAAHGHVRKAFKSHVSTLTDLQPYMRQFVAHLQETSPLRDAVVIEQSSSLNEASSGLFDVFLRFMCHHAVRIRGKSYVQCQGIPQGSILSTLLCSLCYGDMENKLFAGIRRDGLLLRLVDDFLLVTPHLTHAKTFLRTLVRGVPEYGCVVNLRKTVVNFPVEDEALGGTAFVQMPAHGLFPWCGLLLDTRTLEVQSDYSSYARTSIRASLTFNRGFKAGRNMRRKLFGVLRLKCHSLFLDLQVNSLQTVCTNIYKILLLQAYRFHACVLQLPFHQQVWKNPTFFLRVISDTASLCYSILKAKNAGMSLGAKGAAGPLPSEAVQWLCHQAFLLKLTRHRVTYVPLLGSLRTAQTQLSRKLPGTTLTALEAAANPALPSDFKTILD
The IC50 is the midpoint of a concentration-inhibition curve. Read a high IC50 as weaker potency in that assay. With `CC1(C)CC2CN(CCC(=O)Nc3ccc4cc5ccc(NC(=O)CCN6CC7CC(C)(C)CC(C)(C7)C6)cc5nc4c3)CC(C)(C2)C1`, the IC50 is more than 50000 nM.

`CN(C)CCNc1c2cc(NC(=O)CCN3CCCC3)ccc2nc2ccc(NC(=O)CCN3CCCC3)cc12` yielded an IC50 of 570 nM.

As for `O=C(CCN1CCCC1)Nc1ccc2c(NC3CCCCC3)c3cc(NC(=O)CCN4CCCC4)ccc3nc2c1`, the 50% inhibitory concentration (IC50) turned out to be 210 nM.

For `CN(C)CCCNc1c2ccc(NC(=O)CCN3CCCC3)cc2nc2ccc(NC(=O)CCN3CCCC3)cc12`, half-maximal inhibition (IC50) was put at 80 nM.

In the case of `CN(C)c1ccc(Nc2c3ccc(NC(=O)CCN4CCCC4)cc3nc3ccc(NC(=O)CCN4CCCC4)cc23)cc1`, half-maximal inhibition (IC50) was put at 170 nM.

The compound `O=C(CCN1CCCC1)Nc1ccc2nc3ccc(NC(=O)CCN4CCCC4)cc3c(Nc3ccccc3)c2c1` returned an IC50 of 1290 nM.

`CN(C)c1cccc(Nc2c3cc(NC(=O)CCN4CCCC4)ccc3nc3ccc(NC(=O)CCN4CCCC4)cc23)c1` gave an IC50 of 600 nM.

As for `Nc1cccc(Nc2c3cc(NC(=O)CCN4CCCC4)ccc3nc3ccc(NC(=O)CCN4CCCC4)cc23)c1`, the IC50 amounted to 1090 nM.

Consider `CN(C)CCNc1c2ccc(NC(=O)CCN3CCCC3)cc2nc2ccc(NC(=O)CCN3CCCC3)cc12`, for which the IC50 was found to be 270 nM.

`O=C(CCN1CCCC1)Nc1ccc2c(Nc3ccccc3)c3cc(NC(=O)CCN4CCCC4)ccc3nc2c1` returned an IC50 of 1330 nM.

In turn, `COc1ccc(Nc2c3cc(NC(=O)CCN4CCCC4)ccc3nc3ccc(NC(=O)CCN4CCCC4)cc23)cc1` had a half-inhibitory concentration (IC50) of 460 nM.

`Nc1ccc(Nc2c3cc(NC(=O)CCN4CCCC4)ccc3nc3ccc(NC(=O)CCN4CCCC4)cc23)cc1`: half-maximal inhibition (IC50) required 200 nM.

As to `O=C(CCCCC(=O)N1CCCC1)Nc1ccc(Nc2c3ccc(NC(=O)CCN4CCCC4)cc3nc3cc(NC(=O)CCN4CCCC4)ccc23)cc1`, half-maximal inhibition (IC50) required 318 nM.

The compound `CCN(CC)CCCCCCNC(=O)CCCCC(=O)Nc1ccc(Nc2c3ccc(NC(=O)CCN4CCCC4)cc3nc3cc(NC(=O)CCN4CCCC4)ccc23)cc1` showed an IC50 of 80 nM.

On to `CC1CCCCN1CCC(=O)Nc1ccc2c(=O)c3ccc(NC(=O)CCN4CCCCC4C)cc3[nH]c2c1` (stereo unspecified), for which the IC50 turned out to be 2300 nM.

The compound `CCN(CC)CCNC(=O)CCCCC(=O)Nc1ccc(Nc2c3ccc(NC(=O)CCN4CCCC4)cc3nc3cc(NC(=O)CCN4CCCC4)ccc23)cc1` returned an IC50 of 98 nM.

Regarding `CC1CCN(CCC(=O)Nc2ccc3c(=O)c4ccc(NC(=O)CCN5CCC(C)CC5)cc4[nH]c3c2)CC1`, the IC50 was found to be 1700 nM.

Regarding `CCC1CCCCN1CCC(=O)Nc1ccc2c(=O)c3ccc(NC(=O)CCN4CCCCC4CC)cc3[nH]c2c1` (stereo unspecified), inhibition was half-maximal at 2300 nM (IC50).

In turn, `O=C(CCN1CCCC1)Nc1ccc2c(=O)c3ccc(NC(=O)CCN4CCCC4)cc3[nH]c2c1` had an IC50 of 8100 nM.

`O=C(CCN1CCCCC1)Nc1ccc2c(O)c3cc(NC(=O)CCN4CCCCC4)ccc3nc2c1` registered an IC50 of 400 nM.

Compound `O=C(CCN1CCC(O)CC1)Nc1ccc2c(O)c3cc(NC(=O)CCN4CCC(O)CC4)ccc3nc2c1` registered an IC50 of 200 nM.

For `O=C(CCN1CCCCC1)Nc1ccc2nc3ccc(NC(=O)CCN4CCCCC4)cc3c(O)c2c1`, the half-maximal inhibitory concentration (IC50) came to 1900 nM.

As to `CC1CCCCN1CCC(=O)Nc1ccc2nc3ccc(NC(=O)CCN4CCCCC4C)cc3c(O)c2c1` (stereo unspecified), half-maximal inhibition (IC50) required 1500 nM.

The compound `CCN(CC)CCC(=O)Nc1ccc2c(O)c3cc(NC(=O)CCN(CC)CC)ccc3nc2c1` displayed an IC50 of 700 nM.

In turn, `CN(C)CCC(=O)Nc1ccc2nc3ccc(NC(=O)CCN(C)C)cc3c(O)c2c1` yielded an IC50 of 600 nM. The IC50 values of the last two compounds are within 1.5-fold of each other.

In turn, `O=C(CCN1CCCC1)Nc1ccc2nc3ccc(NC(=O)CCN4CCCC4)cc3c(O)c2c1` registered an IC50 of 5800 nM.

Regarding `Nc1ccc(Nc2c3ccc(NC(=O)CCN4CCCC4)cc3nc3cc(NC(=O)CCN4CCCC4)ccc23)cc1`, 74 nM corresponded to half-maximal inhibition (IC50).

Take `CN(C)c1ccc(Nc2c3ccc(NC(=O)CCN4CCCC4)cc3nc3cc(NC(=O)CCN4CCCC4)ccc23)cc1`: half-maximal inhibition (IC50) was put at 100 nM.

The compound `CN(C)c1ccc(Nc2c3cc(NC(=O)CCN4CCCC4)ccc3nc3ccc(NC(=O)CCN4CCCC4)cc23)cc1` came in with an IC50 of 500 nM.

`Nc1cccc(Nc2c3ccc(NC(=O)CCN4CCCC4)cc3nc3ccc(NC(=O)CCN4CCCC4)cc23)c1` displayed an IC50 of 210 nM. This IC50 is about 2.4-fold lower than that of the compound before.

On to `COc1cccc(Nc2c3cc(NC(=O)CCN4CCCC4)ccc3nc3ccc(NC(=O)CCN4CCCC4)cc23)c1`, for which the IC50 stood at 2730 nM.

In the case of `O=C(CCN1CCCC1)Nc1ccc2nc3ccc(NC(=O)CCN4CCCC4)cc3c(Nc3ccccc3O)c2c1`, it took 1030 nM to reach half-maximal inhibition (IC50).

With `Nc1ccccc1Nc1c2ccc(NC(=O)CCN3CCCC3)cc2nc2ccc(NC(=O)CCN3CCCC3)cc12`, the IC50 is 110 nM.

`Nc1ccccc1Nc1c2cc(NC(=O)CCN3CCCC3)ccc2nc2ccc(NC(=O)CCN3CCCC3)cc12` gave an IC50 of 170 nM. Compared with the last compound, the IC50 is about 1.5-fold higher.

In the case of `CC1CCN(CCC(=O)Nc2ccc3c(O)c4cc(NC(=O)CCN5CCC(C)CC5)ccc4nc3c2)CC1`, 200 nM corresponded to half-maximal inhibition (IC50).

As for `CCN(CC)CCC(=O)Nc1ccc2c(=O)c3ccc(NC(=O)CCN(CC)CC)cc3[nH]c2c1`, the IC50 stood at 2700 nM.

In turn, `O=C(CCN1CCC(O)CC1)Nc1ccc2nc3ccc(NC(=O)CCN4CCC(O)CC4)cc3c(O)c2c1` registered a concentration for half-maximal inhibition (IC50) of 2300 nM.

In turn, `O=C(CCN1CCC(O)CC1)Nc1ccc2c(O)c3ccc(NC(=O)CCN4CCC(O)CC4)cc3nc2c1` yielded an IC50 of 1700 nM.

In the case of `C[N+]1(CCC(=O)Nc2ccc3nc4ccc(NC(=O)CC[N+]5(C)CCNCC5)cc4c(O)c3c2)CCNCC1`, 1900 nM corresponded to half-maximal inhibition (IC50).

Turning to `O=C(CCN1CCCCC1CCO)Nc1ccc2c(=O)c3cc(NC(=O)CCN4CCCCC4CCO)ccc3[nH]c2c1` (stereo unspecified), the IC50 is 200 nM.

Take `O=C(CC[N+]1([O-])CCCCC1)Nc1ccc2c(=O)c3ccc(NC(=O)CC[N+]4([O-])CCCCC4)cc3[nH]c2c1`: the IC50 came out at 49000 nM.
